Test results taken from patent publication US11026427B2, “Microbiocidal oxadiazole derivatives” (SYNGENTA PARTICIPATIONS AG, priority 2016, dated 2021).

Assays:
[1] = tested on: Glomerella lacenarium (Colletotrichum lacenarium); test: Glomerella lacenarium (Colletotrichum lacenarium) liquid culture / cucumber / preventative (anthracnose); assay type: cell-based; conditions: 20 ppm in the applied formulation, growth inhibition measured photometrically, compared to untreated control, read-out: disease control
Procedure: Mycelia fragments or conidia suspensions of a fungus prepared either freshly from liquid cultures of the fungus or from cryogenic storage, are directly mixed into nutrient broth. DMSO solutions of the test compound (max. 10 mg/ml) are diluted with 0.025% Tween20 by a factor of 50 and 10 μl of this solution is pipetted into a microtiter plate (96-well format). The nutrient broth containing the fungal spores/mycelia fragments is then added to give an end concentration of the tested compound. The test plates are incubated in the dark at 24° C. and 96% relative humidity. The inhibition of fungal growth is determined photometrically after 2 to 7 days, depending on the pathosystem, and percent antifungal activity relative to the untreated check is calculated.
Conidia of the fungus from cryogenic storage are directly mixed into nutrient broth (PDB—potato dextrose broth). After placing a (DMSO) solution of test compound into a microtiter plate (96-well format), the nutrient broth containing the fungal spores is added. The test plates are incubated at 24° C. and the inhibition of growth is measured photometrically 3 to 4 days after application.
The following compounds at 20 ppm in the applied formulation give at least 80% disease control in this test when compared to untreated control under the same conditions, which show extensive disease development.

[2] = tested on: Puccinia recondita f. Sp. tritici; test: Puccinia recondita f. sp. tritici / wheat / leaf disc preventative (brown rust); assay type: in vivo; conditions: foliar, 200 ppm in the applied formulation, compared to untreated control, read-out: disease control
Procedure: Leaf disks or leaf segments of various plant species are cut from plants grown in a greenhouse. The cut leaf disks or segments are placed in multiwell plates (24-well format) onto water agar. The leaf disks are sprayed with a test solution before (preventative) or after (curative) inoculation. Compounds to be tested are prepared as DMSO solutions (max. 10 mg/ml) which are diluted to the appropriate concentration with 0.025% Tween20 just before spraying. The inoculated leaf disks or segments are incubated under defined conditions (temperature, relative humidity, light, etc.) according to the respective test system. A single evaluation of disease level is carried out 3 to 14 days after inoculation, depending on the pathosystem. Percent disease control relative to the untreated check leaf disks or segments is then calculated. Wheat leaf segments cv. Kanzler were placed on agar in multiwell plates (24-well format) and sprayed with the formulated test compound diluted in water. The leaf disks were inoculated with a spore suspension of the fungus 1 day after application. The inoculated leaf segments were incubated at 19° C. and 75% relative humidity (rh) under a light regime of 12 hours light/12 hours darkness in a climate cabinet and the activity of a compound was assessed as percent disease control compared to untreated when an appropriate level of disease damage appears in untreated check leaf segments (7 to 9 days after application). The following compounds at 200 ppm in the applied formulation give at least 80% disease control in this test when compared to untreated control leaf disks under the same conditions, which show extensive disease development.

Phakopsora pachyrhizi = Phakopsora pachyrhizi / soybean / leaf disc preventative (Asian soybean rust); assay type: in vivo; conditions: foliar, 200 ppm in the applied formulation, compared to untreated control, read-out: disease control
Procedure: (§1) Leaf disks or leaf segments of various plant species are cut from plants grown in a greenhouse. The cut leaf disks or segments are placed in multiwell plates (24-well format) onto water agar. The leaf disks are sprayed with a test solution before (preventative) or after (curative) inoculation. Compounds to be tested are prepared as DMSO solutions (max. 10 mg/ml) which are diluted to the appropriate concentration with 0.025% Tween20 just before spraying. The inoculated leaf disks or segments are incubated under defined conditions (temperature, relative humidity, light, etc.) according to the respective test system. A single evaluation of disease level is carried out 3 to 14 days after inoculation, depending on the pathosystem. Percent disease control relative to the untreated check leaf disks or segments is then calculated.
Soybean leaf disks are placed on water agar in multiwell plates (24-well format) and sprayed with the formulated test compound diluted in water. One day after application leaf discs are inoculated by spraying a spore suspension on the lower leaf surface. After an incubation period in a climate cabinet of 24-36 hours in darkness at 20° C. and 75% rh leaf disc are kept at 20° C. with 12 h light/day and 75% rh. The activity of a compound is assessed as percent disease control compared to untreated when an appropriate level of disease damage appears in untreated check leaf disks (12 to 14 days after application).
(§2) The following compounds at 200 ppm in the applied formulation give at least 80% disease control in this test when compared to untreated control leaf disks under the same conditions, which show extensive disease development.

[3] = tested on: Puccinia recondita f. Sp. tritici; test: Puccinia recondita f. sp. tritici / wheat / leaf disc curative (brown rust); assay type: in vivo; conditions: foliar, 200 ppm in the applied formulation, compared to untreated control, read-out: disease control
Procedure: as §1
Wheat leaf segments cv. Kanzler are placed on agar in multiwell plates (24-well format). The leaf segments are then inoculated with a spore suspension of the fungus. Plates were stored in darkness at 19° C. and 75% relative humidity. The formulated test compound diluted in water was applied 1 day after inoculation. The leaf segments were incubated at 19° C. and 75% relative humidity under a light regime of 12 hours light/12 hours darkness in a climate cabinet and the activity of a compound was assessed as percent disease control compared to untreated when an appropriate level of disease damage appears in untreated check leaf segments (6 to 8 days after application).
as §2

melting point [°C]	Compound	inhibition of growth at 20 ppm [1] [%]	pest or weed control at 200 ppm [2] [%]	pest or weed control at 200 ppm (Phakopsora pachyrhizi) [%]	pest or weed control at 200 ppm [3] [%]
–	Cc1cc(C(=O)c2ccc(-c3noc(C(F)(F)F)n3)cc2)on1 [Compound 1.13, (3-methylisoxazol-5-yl)-[4-[5-(trifluoromethyl)-1,2,4-oxadiazol-3-yl]phenyl]methanone]	≥ 80	≥ 80	≥ 80	≥ 80
–	CCc1cc(C(=O)c2ccc(-c3noc(C(F)(F)F)n3)cc2)on1 [Compound 1.14, (3-ethylisoxazol-5-yl)-[4-[5-(trifluoromethyl)-1,2,4-oxadiazol-3-yl]phenyl]methanone]	≥ 80	≥ 80	≥ 80	≥ 80
66 to 70	O=C(c1ccc(-c2noc(C(F)(F)F)n2)cc1)c1ccccn1 [Compound 1.16, 2-pyridyl-[4-[5-(trifluoromethyl)-1,2,4-oxadiazol-3-yl]phenyl]methanone]	≥ 80	≥ 80	≥ 80	≥ 80
80 to 86	CCn1cc(C(=O)c2ccc(-c3noc(C(F)(F)F)n3)cc2)cn1 [Compound 1.17, (1-ethylpyrazol-4-yl)-[4-[5-(trifluoromethyl)-1,2,4-oxadiazol-3-yl]phenyl]methanone]	≥ 80	≥ 80	≥ 80	≥ 80
–	Cc1cccc(C(=O)c2ccc(-c3noc(C(F)(F)F)n3)cc2)n1 [Compound 1.18, (6-methyl-2-pyridyl)-[4-[5-(trifluoromethyl)-1,2,4-oxadiazol-3-yl]phenyl]methanone]	≥ 80	≥ 80	≥ 80	≥ 80
65 to 73	COc1ccc(C(=O)c2ccc(-c3noc(C(F)(F)F)n3)cc2)nc1 [Compound 1.20, (5-methoxy-2-pyridyl)-[4-[5-(trifluoromethyl)-1,2,4-oxadiazol-3-yl]phenyl]methanone]	≥ 80	≥ 80	≥ 80	≥ 80
84 to 90	O=C(c1ccc(-c2noc(C(F)(F)F)n2)cc1)c1nccs1 [Compound 1.24, thiazol-2-yl-[4-[5-(trifluoromethyl)-1,2,4-oxadiazol-3-yl]phenyl]methanone]	≥ 80	≥ 80	≥ 80	≥ 80
142 to 146	N#Cc1ccc(C(=O)c2ccc(-c3noc(C(F)(F)F)n3)nc2)cc1 [Compound 1.30, 4-[6-[5-(trifluoromethyl)-1,2,4-oxadiazol-3-yl]pyridine-3-carbonyl]benzonitrile]	≥ 80	≥ 80	–	≥ 80
–	Cc1nc(C(=O)c2ccc(-c3noc(C(F)(F)F)n3)cc2)cs1 [Compound 1.33, (2-methylthiazol-4-yl)-[4-[5-(trifluoromethyl)-1,2,4-oxadiazol-3-yl]phenyl]methanone]	≥ 80	≥ 80	–	≥ 80
112 to 118	O=C(c1ccc(-c2noc(C(F)(F)F)n2)cc1)c1ccno1 [Compound 1.35, isoxazol-5-yl-[4-[5-(trifluoromethyl)-1,2,4-oxadiazol-3-yl]phenyl]methanone]	≥ 80	≥ 80	–	≥ 80
–	Cc1ccc(C(=O)c2ccc(-c3noc(C(F)(F)F)n3)cc2)nc1 [Compound 1.37, (5-methyl-2-pyridyl)-[4-[5-(trifluoromethyl)-1,2,4-oxadiazol-3-yl]phenyl]methanone]	≥ 80	≥ 80	–	≥ 80
–	OC(c1ccc(-c2noc(C(F)(F)F)n2)cc1)c1ccccn1 (stereo not shown) [Compound 2.12, 2-pyridyl-[4-[5-(trifluoromethyl)-1,2,4-oxadiazol-3-yl]phenyl]methanol]	≥ 80	≥ 80	≥ 80	≥ 80
–	Cc1cccc(C(O)c2ccc(-c3noc(C(F)(F)F)n3)cc2)n1 (stereo not shown) [Compound 2.13, (6-methyl-2-pyridyl)-[4-[5-(trifluoromethyl)-1,2,4-oxadiazol-3-yl]phenyl]methanol]	≥ 80	≥ 80	≥ 80	≥ 80
56 to 60	OC(c1ccc(-c2noc(C(F)(F)F)n2)cc1)c1cscn1 (stereo not shown) [Compound 2.18, thiazol-4-yl-[4-[5-(trifluoromethyl)-1,2,4-oxadiazol-3-yl]phenyl]methanol]	≥ 80	≥ 80	–	≥ 80
95 to 99	Cc1nc(C(O)c2ccc(-c3noc(C(F)(F)F)n3)cc2)cs1 (stereo not shown) [Compound 2.20, (2-methylthiazol-4-yl)-[4-[5-(trifluoromethyl)-1,2,4-oxadiazol-3-yl]phenyl]methanol]	–	≥ 80	–	≥ 80
104 to 108	Cc1ncc(C(O)c2ccc(-c3noc(C(F)(F)F)n3)cc2)s1 (stereo not shown) [Compound 2.22, (2-methylthiazol-5-yl)-[4-[5-(trifluoromethyl)-1,2,4-oxadiazol-3-yl]phenyl]methanol]	–	≥ 80	–	≥ 80
–	C=C(C)CC(O)(c1ccc(-c2noc(C(F)(F)F)n2)cc1)c1cc(C)no1 (stereo not shown) [Compound 2.24, 3-methyl-1-(3-methylisoxazol-5-yl)-1-[4-[5-(trifluoromethyl)-1,2,4-oxadiazol-3-yl]phenyl]but-3-en-1-ol]	–	≥ 80	–	≥ 80
–	Cc1cc(C(C)(O)c2ccc(-c3noc(C(F)(F)F)n3)cc2)on1 (stereo not shown) [Compound 2.26, 1-(3-methylisoxazol-5-yl)-1-[4-[5-(trifluoromethyl)-1,2,4-oxadiazol-3-yl]phenyl]ethanol]	–	≥ 80	–	≥ 80
–	CCC(O)(c1ccc(-c2noc(C(F)(F)F)n2)cc1)c1cc(C)no1 (stereo not shown) [Compound 2.27, 1-(3-methylisoxazol-5-yl)-1-[4-[5-(trifluoromethyl)-1,2,4-oxadiazol-3-yl]phenyl]propan-1-ol]	–	≥ 80	–	≥ 80
